The values below come from patent US12617771B2, “Diphenylpyrazole compound, and preparation method therefor and application thereof” (NORTHWEST A&F UNIVERSITY, priority 2021, dated 2026).

What all share (assay type): biochemical
Experiment [1] concerns the target Spodoptera frugiperda GSTs. Put plainly: Inhibition of total GSTs enzyme of Spodoptera frugiperda (CDNB method). As for the experimental part: (§1) Experiment: About 50 mg of larvae/nymphs of nine major pests such as Plutella xylostella, Mythimna separata, Pyrausta nubilalis, Chilo suppressalis, Nilaparvata lugens, Spodoptera frugiperda, Helicoverpa armigera, Carposina sasakii, Spodoptera litura were taken, grounded in a mortar pre-cooled at −80° C., and then 1 mL of 100 mM sodium phosphate buffer (1 mM EDTA, pH 7.2) was added and fully homogenized. The homogenate was transferred to a 1.5 mL centrifuge tube at 4° C., and centrifuged at 14,000 g for 30 minutes, and the supernatant was transferred to a new centrifuge tube as the GSTs total enzyme. The protein concentrations of the above total enzymes were determined using the BCA method.
(§2) 100 μL of PBS buffer (100 mM, pH 7.2) containing 1 mM GSH was taken and placed in a 96-well plate, 5 μg of insect total GSTs enzymes and an appropriate concentration of compounds PXG1-PXG29 (29 compounds) of the present invention were added to each well, after uniformly mixing, and allowed to stand at 30° C. for 10 min. Then 100 μL of PBS buffer (100 mM, pH 7.2) containing 1 mM CDNB was added to each well. Immediately after mixing, the mixture was placed in a microplate reader to measure the absorbance at a wavelength of 340 nm (A 340) once every 1 min, the measurement was carried out continuously for 5 min, the light absorption values of each measuring point were recorded and the inhibition rate in vitro of the compounds with different concentrations against insects total GSTs enzymes were calculated. Each group of assays was repeated three times, and total GSTs enzymes inactivated at 100° C. for 5 min were used as negative controls, and GTX was used as positive controls. GraphPad Prism 5 software was used for analysis and calculation of IC50. Relative inhibition was calculated using the following formula:
(§3) [formula] • wherein, A340 is the change of A340 within 5 minutes for the control group, and A340t is the change of A340 within 5 minutes for the experimental group.

The next experiment has as its target PxGSTε3 (Plutella xylostella, UniProt O77409). Put plainly: Inhibition of PxGSTε3 recombinant protein. The note with it: read-out: 100 μM Inhibition rate %. The protocol:
(§4) Experiment: 100 μL of PBS buffer (100 mM, pH 7.2) was taken and added to a 96-well plate, 1 μg of PxGSTs recombinant protein and an appropriate concentration of the compounds PXG1-PXG29 of the present invention were added to each well, after uniformly mixing, and allowed to stand at 30° C. for 10 min. Then 100 μL of PBS buffer (100 mM, pH 7.2) containing 1 mM CDNB and 1 mM GSH was successively added to each well. Immediately after mixing, the mixture was placed in a microplate reader to measure the absorbance at a wavelength of 340 nm (A340) once every 1 min, the measurement was continued for 5 min, the light absorption values of each measuring point were recorded and the inhibition rate in vitro of the compounds PXG1-PXG29 of the present invention with different concentrations against PxGSTs recombinant protein were calculated. Each group of assays was repeated three times, and PxGSTs recombinant protein inactivated at 100° C. for 5 min was used as negative control, and GTX was used as positive control. GraphPad Prism 5 software was used for analysis and calculation of IC50. Relative inhibition was calculated using the following formula:
(§5) [formula] • wherein, A340c is the change of A340 […] the control group, an A340t is the change of A340 within 5 minutes for the experimental group.

Another experiment addresses Pyrausta nubilalis GSTs. The experiment can be described thus: Inhibition of total GSTs enzyme of Pyrausta nubilalis (CDNB method). The protocol:
as §1, §2, §3

Another experiment has as its target PxGSTσ1 (Plutella xylostella, UniProt Q6F436). The experiment can be described thus: Inhibition of PxGSTσ1 recombinant protein. The following applies: read-out: 100 μM Inhibition rate %. The protocol:
as §4, §5

A further experiment deals with Chilo suppressalis GSTs. The experiment can be described thus: Inhibition of total GSTs enzyme of Chilo suppressalis (CDNB method). As for the experimental part: as §1, §2, §3
A further experiment concerns the target Spodoptera litura GSTs. Put plainly: Inhibition of total GSTs enzyme of Spodoptera litura (CDNB method). The protocol:
as §1, §2, §3

Experiment [2] has as its target Helicoverpa armigera GSTs. Put plainly: Inhibition of total GSTs enzyme of Helicoverpa armigera (CDNB method). As for the experimental part: as §1, §2, §3
A further experiment deals with PxGSTδ1 (Plutella xylostella, UniProt D7URW9). Put plainly: Inhibition of PxGSTδ1 recombinant protein. The note with it: read-out: 100 μM Inhibition rate %. As for the experimental part:
as §4, §5

In another experiment the target is Plutella xylostella GSTs. The experiment can be described thus: Inhibition of total GSTs enzyme of Plutella xylostella (CDNB method). As for the experimental part: as §1, §2, §3
Another experiment deals with PxGSTσ2 (Plutella xylostella, UniProt Q6F443). The experiment can be described thus: Inhibition of PxGSTσ2 recombinant protein. The following applies: read-out: 100 μM Inhibition rate %. As for the experimental part: as §4, §5
A further experiment concerns the target Mythimna separata GSTs. The experiment can be described thus: Inhibition of total GSTs enzyme of Mythimna separata (CDNB method). As for the experimental part: as §1, §2, §3
In a further experiment the target is Carposina sasakii GSTs. Put plainly: Inhibition of total GSTs enzyme of Carposina sasakii (CDNB method). The protocol: as §1, §2, §3
The target in a further experiment is Nilaparvata lugens GSTs. Put plainly: Inhibition of total GSTs enzyme of Nilaparvata lugens (CDNB method). As for the experimental part:
as §1, §2, §3

SMILES strings stand for the structures.

Chain of PxGSTε3 (O77409 entry or part of it): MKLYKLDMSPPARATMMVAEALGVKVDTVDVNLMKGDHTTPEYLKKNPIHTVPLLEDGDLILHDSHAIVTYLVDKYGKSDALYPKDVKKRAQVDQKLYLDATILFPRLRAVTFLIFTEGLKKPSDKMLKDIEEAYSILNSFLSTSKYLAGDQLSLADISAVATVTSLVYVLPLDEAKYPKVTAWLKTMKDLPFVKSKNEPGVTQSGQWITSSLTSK
Chain of PxGSTσ1 (Q6F436 entry or part of it): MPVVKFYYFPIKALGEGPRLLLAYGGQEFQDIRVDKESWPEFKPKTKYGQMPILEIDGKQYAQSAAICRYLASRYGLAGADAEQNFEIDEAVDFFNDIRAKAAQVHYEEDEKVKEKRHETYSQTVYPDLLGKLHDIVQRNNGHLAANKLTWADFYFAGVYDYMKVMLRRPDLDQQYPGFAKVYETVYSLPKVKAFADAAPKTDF
Chain of PxGSTσ2 (Q6F443 entry or part of it): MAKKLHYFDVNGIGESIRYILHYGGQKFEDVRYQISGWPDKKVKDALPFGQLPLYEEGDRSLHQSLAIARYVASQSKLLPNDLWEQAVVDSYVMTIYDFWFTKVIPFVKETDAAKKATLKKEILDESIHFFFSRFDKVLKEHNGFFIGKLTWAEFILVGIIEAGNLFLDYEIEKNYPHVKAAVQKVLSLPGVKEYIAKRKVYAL
Chain of PxGSTδ1 (D7URW9 entry or part of it): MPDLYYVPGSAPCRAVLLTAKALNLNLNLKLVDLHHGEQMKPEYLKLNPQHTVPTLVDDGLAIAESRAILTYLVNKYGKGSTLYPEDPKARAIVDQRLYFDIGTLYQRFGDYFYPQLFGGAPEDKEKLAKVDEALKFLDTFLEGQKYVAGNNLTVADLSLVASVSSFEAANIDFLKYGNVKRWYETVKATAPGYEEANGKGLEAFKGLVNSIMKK

Turning to `O=C(CNc1ccccc1)NNC(=O)c1cc(-c2ccccc2)nn1-c1ccccc1` [PXG3, N′-(1,3-diphenyl-1H-pyrazol-5-yl-carbonyl)-2-(phenylamino) acetohydrazide], the concentration for half-maximal inhibition (IC50) (in [1]; against Pyrausta nubilalis GSTs; on Chilo suppressalis GSTs; against Spodoptera litura GSTs; in experiment [2]; against Plutella xylostella GSTs) was > 100 µM in each case. Besides, the 50% inhibitory concentration (IC50) against Mythimna separata GSTs, against Carposina sasakii GSTs and at Nilaparvata lugens GSTs was > 100 µM in each case. For the same compound, the “100 μM Inhibition rate %” value turned out to be 35.46% in experiment [1]; 17.35% with Pyrausta nubilalis GSTs; 26.63% with Chilo suppressalis GSTs; 17.09% with Spodoptera litura GSTs; 20.74% in experiment [2]; 25.47% in the experiment on Plutella xylostella GSTs. Also, the “100 μM Inhibition rate %” value in the experiment on Mythimna separata GSTs came out at 42.96%; in the experiment with Carposina sasakii GSTs, 23.07%; in the experiment with Nilaparvata lugens GSTs, 35.05%. Besides, the inhibition at 100 µM on PxGSTε3 was -1.11%; on PxGSTσ1, 36.1%; on PxGSTδ1 it was 72.4%; on PxGSTσ2, 27.6%.

As for `CC1(CCc2ccccc2)NC(=O)N(NC(=O)c2cc(-c3ccccc3)nn2-c2ccccc2)C1=O` (centres unmarked) [PXG15, N-[4-methyl-2,5-dioxo-4-(2-phenylethyl)imidazolin-1-yl]-1,3-diphenyl-1H-pyrazol-5-yl-carboxamide], the 50% inhibitory concentration (IC50) (in experiment [1]; against Pyrausta nubilalis GSTs; against Chilo suppressalis GSTs; on Spodoptera litura GSTs; in experiment [2]; against Plutella xylostella GSTs) was > 100 µM in each case. For the same compound, the half-inhibitory concentration (IC50) at Mythimna separata GSTs, against Carposina sasakii GSTs and against Nilaparvata lugens GSTs was > 100 µM in each case. For the same compound, the “100 μM Inhibition rate %” value in [1] is listed as 0.41%; in the experiment with Pyrausta nubilalis GSTs, 4.69%; with Chilo suppressalis GSTs it was 18.72%; with Spodoptera litura GSTs, −5.22%; in experiment [2] it was −1.48%; with Plutella xylostella GSTs, 16.83%. The “100 μM Inhibition rate %” value with Mythimna separata GSTs stood at 4.29%; in the experiment with Carposina sasakii GSTs, 17.01%; with Nilaparvata lugens GSTs, 2.97%. In addition, the inhibition at 100 µM at PxGSTε3 was 4.62%; at PxGSTσ1 it was 42.5%; on PxGSTδ1, 7.86%; on PxGSTσ2, 25.6%.

Consider `CC1(c2ccccc2)NC(=O)N(NC(=O)c2cc(-c3ccccc3)nn2-c2ccccc2)C1=O` (centres unmarked) [PXG12, N-(4-methyl-2,5-dioxo-4-phenylimidazolin-1-yl)-1,3-diphenyl-1H-pyrazol-5-yl-carboxamide], for which the IC50 (in experiment [1]; against Pyrausta nubilalis GSTs; on Chilo suppressalis GSTs; at Spodoptera litura GSTs; in experiment [2]; against Plutella xylostella GSTs) was > 100 µM in each case. For the same compound, the half-inhibitory concentration (IC50) against Mythimna separata GSTs, on Carposina sasakii GSTs and against Nilaparvata lugens GSTs was > 100 µM in each case. The “100 μM Inhibition rate %” value was 12.52% in [1]; 19.48% with Pyrausta nubilalis GSTs; 29.54% in the experiment on Chilo suppressalis GSTs; 4.60% in the experiment on Spodoptera litura GSTs; −5.00% in experiment [2]; 15.08% in the experiment with Plutella xylostella GSTs. The “100 μM Inhibition rate %” value is listed as 19.42% with Mythimna separata GSTs, 17.94% in the experiment on Carposina sasakii GSTs and −3.30% in the experiment on Nilaparvata lugens GSTs. Further, the inhibition at 100 µM on PxGSTε3 was 10.9%; at PxGSTσ1, 48.3%; on PxGSTδ1 it was 40.2%; at PxGSTσ2 it was 33.6%.

In the case of `COc1ccccc1CC(=O)NNC(=O)c1cc(-c2ccccc2)nn1-c1ccccc1` [PXG10, N′-(1,3-diphenyl-1H-pyrazol-5-yl-carbonyl)-2-(2-methoxyphenyl) acetohydrazide], the half-maximal inhibitory concentration (IC50) (in experiment [1]; against Pyrausta nubilalis GSTs; at Chilo suppressalis GSTs; on Spodoptera litura GSTs; in [2]; against Plutella xylostella GSTs) was > 100 µM throughout. Further, the half-maximal inhibitory concentration (IC50) on Mythimna separata GSTs, on Carposina sasakii GSTs and at Nilaparvata lugens GSTs was > 100 µM throughout. Moreover, the “100 μM Inhibition rate %” value was 20.93% in experiment [1]; −3.85% in the experiment with Pyrausta nubilalis GSTs; 5.85% in the experiment on Chilo suppressalis GSTs; 3.87% with Spodoptera litura GSTs; 9.75% in [2]; −17.71% with Plutella xylostella GSTs. Also, the figures for the “100 μM Inhibition rate %” value in the experiment with Mythimna separata GSTs, in the experiment on Carposina sasakii GSTs and in the experiment on Nilaparvata lugens GSTs were −2.50%, 32.54% and 19.24%, respectively. Moreover, the inhibition at 100 µM is 2.03% at PxGSTε3, 29.4% on PxGSTσ1, 91% at PxGSTδ1 and 19.2% at PxGSTσ2.

Consider `CN(C)S(=O)(=O)c1ccc(C(=O)NNC(=O)c2cc(-c3ccccc3)nn2-c2ccccc2)cc1` [PXG29, 4-[N′-(1,3-diphenyl-1H-pyrazol-5-yl-carbonyl) hydrazinocarbonyl]-N,N-dimethyl phenyl-1-sulfonamide], for which the half-maximal inhibitory concentration (IC50) (in experiment [1]; against Pyrausta nubilalis GSTs; against Chilo suppressalis GSTs; against Spodoptera litura GSTs; in [2]; against Plutella xylostella GSTs) was > 100 µM in each case. The 50% inhibitory concentration (IC50) at Mythimna separata GSTs, against Carposina sasakii GSTs and against Nilaparvata lugens GSTs was > 100 µM each time. In addition, the “100 μM Inhibition rate %” value came out at 4.82% in experiment [1]; 10.83% in the experiment on Pyrausta nubilalis GSTs; 13.81% in the experiment on Chilo suppressalis GSTs; 4.60% in the experiment on Spodoptera litura GSTs; 10.99% in [2]; 9.32% in the experiment on Plutella xylostella GSTs. In addition, the “100 μM Inhibition rate %” value in the experiment with Mythimna separata GSTs was 4.90%; in the experiment on Carposina sasakii GSTs it was 33.57%; in the experiment with Nilaparvata lugens GSTs it was −10.71%. The inhibition at 100 µM was 0.03% at PxGSTε3, 53.3% on PxGSTσ1, 16.7% at PxGSTδ1 and 44.7% at PxGSTσ2.

Usually IC50 stands for the concentration that inhibits the measured activity by half. A higher IC50 goes with weaker potency in that assay. As a reminder, the inhibition is the change of the read-out against control, counted positive when it falls.
